{"source": "patent US7205123B2", "about": "“Recombinant materials for carotenoid production” (DSM IP Assets B.V., priority 1995, dated 2007)", "key": {"[1]": {"test_system": "Phaffia transformant G418-1", "experiment": "Survival of Phaffia transformant G418-1 on YepD agar with increasing G418", "format": "cell-based, Phaffia rhodozyma", "experimental": "To determine the expression of the G418 resistance gene in pGB-Ph9, transformant G418-1 (EP 0 590 707 A1) was exposed to increasing concentrations of G418.\nTwo dilutions of a G418-1 culture were plated onto YepD agar containing 0–1000 μg/ml G418 (Table 1)."}, "[2]": {"test_system": "Phaffia (CBS6938)", "experiment": "Survival of untransformed Phaffia on YepD agar with increasing G418", "format": "cell-based, Phaffia rhodozyma", "conditions": "Dil. 0 (OD600 = 5)"}}, "data": [{"smiles": "CN[C@@H]1[C@@H](O)[C@@H](O[C@@H]2[C@@H](O)[C@H](O[C@H]3O[C@H]([C@@H](C)O)[C@@H](O)[C@H](O)[C@H]3N)[C@@H](N)C[C@H]2N)OC[C@]1(C)O", "note": "[G418]", "values": [{"measurement": "Survival on YepD agar medium", "setting": "[1]; G418 200 μg/ml, Dil. 10^-4 (OD600 = 7)", "result": ">300"}, {"measurement": "Survival on YepD agar medium", "setting": "[1]; G418 200 μg/ml, Dil. 10^-5 (OD600 = 7)", "result": 70}, {"measurement": "Survival on YepD agar medium", "setting": "[1]; G418 300 μg/ml, Dil. 10^-4 (OD600 = 7)", "result": ">300"}, {"measurement": "Survival on YepD agar medium", "setting": "[1]; G418 300 μg/ml, Dil. 10^-5 (OD600 = 7)", "result": 61}, {"measurement": "Survival on YepD agar medium", "setting": "[1]; G418 400 μg/ml, Dil. 10^-4 (OD600 = 7)", "result": 212}, {"measurement": "Survival on YepD agar medium", "setting": "[1]; G418 400 μg/ml, Dil. 10^-5 (OD600 = 7)", "result": 13}, {"measurement": "Survival on YepD agar medium", "setting": "[1]; G418 500 μg/ml, Dil. 10^-4 (OD600 = 7)", "result": 10}, {"measurement": "Survival on YepD agar medium", "setting": "[1]; G418 500 μg/ml, Dil. 10^-5 (OD600 = 7)", "result": 2}, {"measurement": "plated cells survived", "setting": "[1]; G418 600 μg/ml", "result": "less than 1%"}, {"measurement": "Survival on YepD agar medium", "setting": "[1]; G418 600 μg/ml, Dil. 10^-4 (OD600 = 7)", "result": 0}, {"measurement": "Survival on YepD agar medium", "setting": "[1]; G418 600 μg/ml, Dil. 10^-5 (OD600 = 7)", "result": 0}, {"measurement": "Survival on YepD agar medium", "setting": "[1]; G418 700 μg/ml, Dil. 10^-4 (OD600 = 7)", "result": 0}, {"measurement": "Survival on YepD agar medium", "setting": "[1]; G418 700 μg/ml, Dil. 10^-5 (OD600 = 7)", "result": 0}, {"measurement": "Survival on YepD agar medium", "setting": "[1]; G418 800 μg/ml, Dil. 10^-4 (OD600 = 7)", "result": 0}, {"measurement": "Survival on YepD agar medium", "setting": "[1]; G418 800 μg/ml, Dil. 10^-5 (OD600 = 7)", "result": 0}, {"measurement": "Survival on YepD agar medium", "setting": "[1]; G418 900 μg/ml, Dil. 10^-4 (OD600 = 7)", "result": 0}, {"measurement": "Survival on YepD agar medium", "setting": "[1]; G418 900 μg/ml, Dil. 10^-5 (OD600 = 7)", "result": 0}, {"measurement": "Survival on YepD agar medium", "setting": "[1]; G418 1000 μg/ml, Dil. 10^-4 (OD600 = 7)", "result": 0}, {"measurement": "Survival on YepD agar medium", "setting": "[1]; G418 1000 μg/ml, Dil. 10^-5 (OD600 = 7)", "result": 0}, {"measurement": "Survival on YepD agar medium", "setting": "[2]; G418 200 μg/ml", "result": 0}, {"measurement": "Survival on YepD agar medium", "setting": "[2]; G418 300 μg/ml", "result": 0}, {"measurement": "Survival on YepD agar medium", "setting": "[2]; G418 400 μg/ml", "result": 0}, {"measurement": "Survival on YepD agar medium", "setting": "[2]; G418 500 μg/ml", "result": 0}, {"measurement": "Survival on YepD agar medium", "setting": "[2]; G418 600 μg/ml", "result": 0}, {"measurement": "Survival on YepD agar medium", "setting": "[2]; G418 700 μg/ml", "result": 0}, {"measurement": "Survival on YepD agar medium", "setting": "[2]; G418 800 μg/ml", "result": 0}, {"measurement": "Survival on YepD agar medium", "setting": "[2]; G418 900 μg/ml", "result": 0}, {"measurement": "Survival on YepD agar medium", "setting": "[2]; G418 1000 μg/ml", "result": 0}]}]}
